Activity calls are given as the source filed them. The rule behind the calls is not given here.
Columns and labels:
NCI-H146 = assay: CellTiter-Glo Luminescent Cell Viability Assay (BCL-XL dependent cell line H146); assay type: functional, cell-based; settings: Homo sapiens
[1] = tested on: Tyrosine-protein kinase ABL1 (Homo sapiens), P00519 [Q252H]; settings: Compound concentration 1000.0 nM
[2] = molecular target: Serine/threonine-protein kinase B-raf (Homo sapiens) (UniProt P15056); settings: Compound concentration 1000.0 nM
[3] = molecular target: Calcium/calmodulin-dependent protein kinase type II subunit alpha (Homo sapiens) (UniProt Q9UQM7); settings: Compound concentration 1000.0 nM
[4] = molecular target: Cyclin-dependent kinase-like 3 (Homo sapiens) (UniProt Q8IVW4); settings: Compound concentration 1000.0 nM
[5] = molecular target: Casein kinase I isoform gamma-3 (Homo sapiens) (UniProt Q9Y6M4); settings: Compound concentration 1000.0 nM
[6] = molecular target: Dual specificity tyrosine-phosphorylation-regulated kinase 1B (Homo sapiens) (UniProt Q9Y463); settings: Compound concentration 1000.0 nM
[7] = tested on: Epidermal growth factor receptor (Homo sapiens), P00533 [G719S]; settings: Compound concentration 1000.0 nM
[8] = molecular target: Mitogen-activated protein kinase 3 (Homo sapiens) (UniProt P27361); settings: Compound concentration 1000.0 nM
[9] = molecular target: Mitogen-activated protein kinase 15 (Homo sapiens) (UniProt Q8TD08); settings: Compound concentration 1000.0 nM
[10] = molecular target: Tyrosine-protein kinase Fgr (Homo sapiens) (UniProt P09769); settings: Compound concentration 1000.0 nM
[11] = tested on: Receptor-type tyrosine-protein kinase FLT3 (Homo sapiens), P36888 [D835Y]; settings: Compound concentration 1000.0 nM
[12] = molecular target: Vascular endothelial growth factor receptor 3 (Homo sapiens) (UniProt P35916); settings: Compound concentration 1000.0 nM
[13] = molecular target: Interleukin-1 receptor-associated kinase 3 (Homo sapiens) (UniProt Q9Y616); settings: Compound concentration 1000.0 nM
[14] = molecular target: Tyrosine-protein kinase ITK/TSK (Homo sapiens) (UniProt Q08881); settings: Compound concentration 1000.0 nM
[15] = molecular target: Tyrosine-protein kinase JAK1 (Homo sapiens) (UniProt P23458); settings: Compound concentration 1000.0 nM
[16] = molecular target: Mitogen-activated protein kinase kinase kinase 1 (Homo sapiens) (UniProt Q13233); settings: Compound concentration 1000.0 nM
[17] = molecular target: Serine/threonine-protein kinase MARK1 (Homo sapiens) (UniProt Q9P0L2); settings: Compound concentration 1000.0 nM
[18] = molecular target: Misshapen-like kinase 1 (Homo sapiens) (UniProt Q8N4C8); settings: Compound concentration 1000.0 nM
[19] = molecular target: Serine/threonine-protein kinase Nek3 (Homo sapiens) (UniProt P51956); settings: Compound concentration 1000.0 nM
[20] = molecular target: Serine/threonine-protein kinase Nek9 (Homo sapiens) (UniProt Q8TD19); settings: Compound concentration 1000.0 nM
[21] = molecular target: Serine/threonine-protein kinase pim-2 (Homo sapiens) (UniProt Q9P1W9); settings: Compound concentration 1000.0 nM
[22] = molecular target: Serine/threonine-protein kinase N1 (Homo sapiens) (UniProt Q16512); settings: Compound concentration 1000.0 nM
[23] = molecular target: Serine/threonine-protein kinase PknB (Mycobacterium tuberculosis) (UniProt P9WI81); settings: Compound concentration 1000.0 nM
[24] = molecular target: Serine/threonine-protein kinase PLK2 (Homo sapiens) (UniProt Q9NYY3); settings: Compound concentration 1000.0 nM
[25] = molecular target: Protein kinase C theta type (Homo sapiens) (UniProt Q04759); settings: Compound concentration 1000.0 nM
[26] = molecular target: cGMP-dependent protein kinase 2 (Homo sapiens) (UniProt Q13237); settings: Compound concentration 1000.0 nM
[27] = molecular target: Receptor-interacting serine/threonine-protein kinase 1 (Homo sapiens) (UniProt Q13546); settings: Compound concentration 1000.0 nM
[28] = molecular target: Ribosomal protein S6 kinase alpha-6 (Homo sapiens) (UniProt Q9UK32); settings: Compound concentration 1000.0 nM
[29] = molecular target: STE20-like serine/threonine-protein kinase (Homo sapiens) (UniProt Q9H2G2); settings: Compound concentration 1000.0 nM
[30] = molecular target: Dual specificity testis-specific protein kinase 1 (Homo sapiens) (UniProt Q15569); settings: Compound concentration 1000.0 nM
[31] = molecular target: Tyrosine-protein kinase TXK (Homo sapiens) (UniProt P42681); settings: Compound concentration 1000.0 nM
[32] = molecular target: Serine/threonine-protein kinase 32C (Homo sapiens) (UniProt Q86UX6); settings: Compound concentration 1000.0 nM
[33] = molecular target: D(4) dopamine receptor (Homo sapiens) (UniProt P21917); settings: Compound concentration 10.0 uM
[34] = molecular target: Histamine H1 receptor (Homo sapiens) (UniProt P35367); settings: Compound concentration 10.0 uM
[35] = molecular target: T1, Alpha-1B adrenergic receptor (Homo sapiens) (UniProt P35368); settings: Compound concentration 10.0 uM
T1 sequence (whole entry): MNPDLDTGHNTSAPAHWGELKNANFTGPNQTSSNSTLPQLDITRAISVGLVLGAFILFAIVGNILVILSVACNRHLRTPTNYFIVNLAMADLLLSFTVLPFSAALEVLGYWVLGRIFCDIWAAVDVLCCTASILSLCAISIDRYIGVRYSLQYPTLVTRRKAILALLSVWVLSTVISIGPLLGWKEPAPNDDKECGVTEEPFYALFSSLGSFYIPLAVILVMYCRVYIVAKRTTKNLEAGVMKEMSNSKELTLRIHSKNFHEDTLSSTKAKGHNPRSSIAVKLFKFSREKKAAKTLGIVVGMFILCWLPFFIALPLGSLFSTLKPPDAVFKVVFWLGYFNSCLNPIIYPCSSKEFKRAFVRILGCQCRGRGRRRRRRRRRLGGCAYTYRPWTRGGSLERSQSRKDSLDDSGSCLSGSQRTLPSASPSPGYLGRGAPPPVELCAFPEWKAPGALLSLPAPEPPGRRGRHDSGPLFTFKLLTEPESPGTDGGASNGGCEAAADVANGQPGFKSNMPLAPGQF

[36] = molecular target: Beta-3 adrenergic receptor (Homo sapiens) (UniProt P13945); settings: Compound concentration 10.0 uM
Rattus norvegicus = species: Rattus norvegicus; settings: Compound concentration 10.0 uM
[37] = molecular target: Sigma non-opioid intracellular receptor 1 (Homo sapiens, UniProt Q99720); settings: Compound concentration 10.0 uM
Sequence of Sigma non-opioid intracellular receptor 1 (Q99720 whole entry): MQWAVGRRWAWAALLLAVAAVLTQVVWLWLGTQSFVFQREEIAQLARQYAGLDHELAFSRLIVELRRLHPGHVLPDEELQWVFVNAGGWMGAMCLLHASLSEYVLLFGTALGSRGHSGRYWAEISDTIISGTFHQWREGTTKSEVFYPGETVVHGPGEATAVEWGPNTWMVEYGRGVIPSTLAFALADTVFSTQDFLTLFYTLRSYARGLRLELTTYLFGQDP

Sequence of Mitogen-activated protein kinase 3 (Homo sapiens) (P27361 whole entry): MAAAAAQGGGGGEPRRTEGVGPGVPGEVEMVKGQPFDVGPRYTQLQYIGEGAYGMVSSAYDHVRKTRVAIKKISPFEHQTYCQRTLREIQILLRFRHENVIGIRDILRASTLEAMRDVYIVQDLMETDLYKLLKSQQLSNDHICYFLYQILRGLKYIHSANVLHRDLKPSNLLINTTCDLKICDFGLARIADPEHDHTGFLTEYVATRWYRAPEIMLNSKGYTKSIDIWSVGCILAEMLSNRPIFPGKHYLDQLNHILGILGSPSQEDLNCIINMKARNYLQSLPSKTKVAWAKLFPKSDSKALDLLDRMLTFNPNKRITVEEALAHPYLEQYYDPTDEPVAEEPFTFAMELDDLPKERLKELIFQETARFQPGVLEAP
Sequence of Tyrosine-protein kinase Fgr (Homo sapiens) (P09769 2-529 limits assumed): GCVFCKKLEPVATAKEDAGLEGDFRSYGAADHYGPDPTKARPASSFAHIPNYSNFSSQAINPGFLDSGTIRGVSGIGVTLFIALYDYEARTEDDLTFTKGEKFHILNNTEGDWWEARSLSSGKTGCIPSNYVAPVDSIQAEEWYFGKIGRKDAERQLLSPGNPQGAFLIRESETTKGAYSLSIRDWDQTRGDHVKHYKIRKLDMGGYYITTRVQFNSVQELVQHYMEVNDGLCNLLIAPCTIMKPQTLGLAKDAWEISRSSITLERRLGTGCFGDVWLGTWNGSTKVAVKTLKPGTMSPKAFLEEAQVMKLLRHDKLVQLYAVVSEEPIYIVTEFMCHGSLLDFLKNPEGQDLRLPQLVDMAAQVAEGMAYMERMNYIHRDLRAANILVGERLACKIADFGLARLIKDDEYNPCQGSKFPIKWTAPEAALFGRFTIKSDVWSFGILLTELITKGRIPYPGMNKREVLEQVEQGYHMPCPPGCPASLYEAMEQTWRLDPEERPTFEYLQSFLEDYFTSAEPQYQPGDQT
Sequence of Mitogen-activated protein kinase 15 (Homo sapiens) (Q8TD08 whole entry): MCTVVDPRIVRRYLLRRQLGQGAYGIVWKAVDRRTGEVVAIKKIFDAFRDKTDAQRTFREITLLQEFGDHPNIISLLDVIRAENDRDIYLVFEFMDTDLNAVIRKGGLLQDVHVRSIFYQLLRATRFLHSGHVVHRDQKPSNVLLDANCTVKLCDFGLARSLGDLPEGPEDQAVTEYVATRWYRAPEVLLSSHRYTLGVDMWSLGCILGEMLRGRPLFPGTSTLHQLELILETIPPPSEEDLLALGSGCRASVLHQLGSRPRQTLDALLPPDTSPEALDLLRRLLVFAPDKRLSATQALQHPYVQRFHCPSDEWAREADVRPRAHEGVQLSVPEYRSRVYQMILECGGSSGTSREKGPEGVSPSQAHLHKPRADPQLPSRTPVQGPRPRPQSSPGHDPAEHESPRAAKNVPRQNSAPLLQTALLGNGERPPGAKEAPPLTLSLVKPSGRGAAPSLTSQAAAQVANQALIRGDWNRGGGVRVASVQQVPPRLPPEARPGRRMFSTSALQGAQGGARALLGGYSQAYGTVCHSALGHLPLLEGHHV
Sequence of Serine/threonine-protein kinase pim-2 (Homo sapiens) (Q9P1W9 whole entry, looked up): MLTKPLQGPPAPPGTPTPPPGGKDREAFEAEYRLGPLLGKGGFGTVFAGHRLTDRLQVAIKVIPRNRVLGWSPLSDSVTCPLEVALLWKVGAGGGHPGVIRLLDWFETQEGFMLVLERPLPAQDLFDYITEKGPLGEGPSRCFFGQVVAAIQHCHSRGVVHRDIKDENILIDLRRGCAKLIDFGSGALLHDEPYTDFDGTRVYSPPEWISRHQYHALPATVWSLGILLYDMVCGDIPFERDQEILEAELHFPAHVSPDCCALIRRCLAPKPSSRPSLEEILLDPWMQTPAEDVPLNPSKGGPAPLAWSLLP
Sequence of Misshapen-like kinase 1 (Homo sapiens) (Q8N4C8 whole entry, looked up): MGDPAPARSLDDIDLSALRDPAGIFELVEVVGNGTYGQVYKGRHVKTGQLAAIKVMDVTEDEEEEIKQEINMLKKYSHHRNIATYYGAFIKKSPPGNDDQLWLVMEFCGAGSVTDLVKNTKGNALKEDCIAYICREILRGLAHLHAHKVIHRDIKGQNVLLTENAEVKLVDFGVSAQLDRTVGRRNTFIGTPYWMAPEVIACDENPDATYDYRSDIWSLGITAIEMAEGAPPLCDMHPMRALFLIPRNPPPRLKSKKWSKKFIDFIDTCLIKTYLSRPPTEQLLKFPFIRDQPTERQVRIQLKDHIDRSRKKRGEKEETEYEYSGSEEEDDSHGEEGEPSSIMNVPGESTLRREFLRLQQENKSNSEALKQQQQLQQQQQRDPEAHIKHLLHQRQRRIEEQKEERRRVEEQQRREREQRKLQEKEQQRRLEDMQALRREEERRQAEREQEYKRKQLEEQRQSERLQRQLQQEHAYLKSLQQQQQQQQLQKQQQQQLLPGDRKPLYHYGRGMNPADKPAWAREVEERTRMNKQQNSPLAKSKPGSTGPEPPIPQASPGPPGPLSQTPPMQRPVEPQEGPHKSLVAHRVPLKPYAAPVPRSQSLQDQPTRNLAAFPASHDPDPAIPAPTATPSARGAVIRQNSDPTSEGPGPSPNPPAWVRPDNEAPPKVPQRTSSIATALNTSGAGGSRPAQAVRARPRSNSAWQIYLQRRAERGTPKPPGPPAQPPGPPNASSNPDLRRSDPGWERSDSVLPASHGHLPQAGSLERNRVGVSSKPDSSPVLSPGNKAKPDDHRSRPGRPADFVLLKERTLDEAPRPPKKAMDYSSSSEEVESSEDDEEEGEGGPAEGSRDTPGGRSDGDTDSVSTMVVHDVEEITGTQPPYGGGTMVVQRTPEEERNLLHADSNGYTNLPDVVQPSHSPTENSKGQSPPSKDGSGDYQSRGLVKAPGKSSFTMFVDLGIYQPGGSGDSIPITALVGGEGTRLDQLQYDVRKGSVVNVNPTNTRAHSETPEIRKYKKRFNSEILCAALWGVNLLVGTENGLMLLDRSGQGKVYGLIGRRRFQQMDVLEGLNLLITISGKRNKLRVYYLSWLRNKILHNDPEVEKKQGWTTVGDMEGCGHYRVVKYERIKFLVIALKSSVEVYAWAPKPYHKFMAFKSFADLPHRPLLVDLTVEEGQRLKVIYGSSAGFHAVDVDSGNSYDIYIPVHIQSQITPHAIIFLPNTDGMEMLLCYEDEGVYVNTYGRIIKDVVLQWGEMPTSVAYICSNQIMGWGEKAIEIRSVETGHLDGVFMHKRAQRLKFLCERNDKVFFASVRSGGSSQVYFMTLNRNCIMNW
Sequence of Serine/threonine-protein kinase PknB (Mycobacterium tuberculosis) (P9WI81 whole entry): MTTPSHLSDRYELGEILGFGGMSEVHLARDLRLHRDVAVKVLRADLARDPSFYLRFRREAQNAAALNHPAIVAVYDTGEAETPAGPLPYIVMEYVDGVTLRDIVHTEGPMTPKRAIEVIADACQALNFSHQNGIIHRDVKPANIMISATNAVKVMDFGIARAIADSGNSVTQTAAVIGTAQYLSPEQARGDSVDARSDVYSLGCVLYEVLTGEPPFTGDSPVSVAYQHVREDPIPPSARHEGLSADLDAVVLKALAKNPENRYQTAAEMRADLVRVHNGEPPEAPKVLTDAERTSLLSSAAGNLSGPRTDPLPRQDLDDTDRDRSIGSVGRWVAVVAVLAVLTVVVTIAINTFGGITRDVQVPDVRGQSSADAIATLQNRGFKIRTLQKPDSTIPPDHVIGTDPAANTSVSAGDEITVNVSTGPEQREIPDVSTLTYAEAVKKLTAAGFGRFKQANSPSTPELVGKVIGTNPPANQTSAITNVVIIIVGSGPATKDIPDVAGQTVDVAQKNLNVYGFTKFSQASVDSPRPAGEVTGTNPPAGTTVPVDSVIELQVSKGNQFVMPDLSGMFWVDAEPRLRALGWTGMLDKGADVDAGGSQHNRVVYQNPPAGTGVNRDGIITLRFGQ
Sequence of Cyclin-dependent kinase-like 3 (Homo sapiens) (Q8IVW4 whole entry, looked up, canonical isoform): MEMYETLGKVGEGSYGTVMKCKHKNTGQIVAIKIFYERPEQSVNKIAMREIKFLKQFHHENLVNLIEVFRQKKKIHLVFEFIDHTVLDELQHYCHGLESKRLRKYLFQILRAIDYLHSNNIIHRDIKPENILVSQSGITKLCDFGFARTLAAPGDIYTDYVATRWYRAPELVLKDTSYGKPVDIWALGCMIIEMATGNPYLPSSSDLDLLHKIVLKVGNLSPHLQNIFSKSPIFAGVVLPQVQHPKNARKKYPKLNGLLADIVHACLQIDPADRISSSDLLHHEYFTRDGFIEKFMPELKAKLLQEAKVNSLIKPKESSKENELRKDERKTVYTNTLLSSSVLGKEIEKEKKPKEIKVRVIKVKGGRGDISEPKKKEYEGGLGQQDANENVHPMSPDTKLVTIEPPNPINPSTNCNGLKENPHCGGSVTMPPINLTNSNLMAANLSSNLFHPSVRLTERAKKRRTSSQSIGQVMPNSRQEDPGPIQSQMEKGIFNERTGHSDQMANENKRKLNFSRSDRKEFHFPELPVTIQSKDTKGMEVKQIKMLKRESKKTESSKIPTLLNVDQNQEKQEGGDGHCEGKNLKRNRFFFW
Sequence of Serine/threonine-protein kinase 32C (Homo sapiens) (Q86UX6 whole entry): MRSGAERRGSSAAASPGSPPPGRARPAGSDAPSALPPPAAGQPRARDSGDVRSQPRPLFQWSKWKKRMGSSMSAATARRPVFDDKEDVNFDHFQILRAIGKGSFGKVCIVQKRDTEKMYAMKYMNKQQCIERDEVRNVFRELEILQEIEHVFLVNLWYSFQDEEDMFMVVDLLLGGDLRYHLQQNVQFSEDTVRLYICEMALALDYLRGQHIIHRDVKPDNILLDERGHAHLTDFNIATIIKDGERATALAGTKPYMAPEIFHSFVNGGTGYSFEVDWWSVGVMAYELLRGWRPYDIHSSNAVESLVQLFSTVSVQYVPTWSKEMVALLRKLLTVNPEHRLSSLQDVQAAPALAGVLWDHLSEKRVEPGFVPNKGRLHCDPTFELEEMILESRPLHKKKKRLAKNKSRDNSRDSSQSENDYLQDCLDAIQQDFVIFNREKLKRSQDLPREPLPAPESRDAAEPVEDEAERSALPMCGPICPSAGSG

With `CN(C)CC#Cc1ccc(OCCCc2sc(N3CCc4cccc(C(=O)Nc5nc6ccccc6s5)c4C3)nc2C(=O)O)c(F)c1` [A-1155463] the EC50 (NCI-H146) was 70 nM (active), the residual activity [1] was 94% and the residual activity [2] was 100%. For the same molecule, the residual activity [3] was 64%, the residual activity [4] was 100% and the residual activity [5] was 100%. For the same molecule, the residual activity [6] was 87%, the residual activity [7] was 100% and the residual activity [8] was 96%. For the same molecule, the residual activity [9] was 100%, the residual activity [10] was 100% and the residual activity [11] was 83%. The residual activity [12] was 100%, the residual activity [13] was 77% and the residual activity [14] was 100%. It also gave a residual activity [15] of 97%, a residual activity [16] of 100% and a residual activity [17] of 93%. The residual activity [18] was 88%, the residual activity [19] was 100% and the residual activity [20] was 95%. For the same molecule, the residual activity [21] was 100%, the residual activity [22] was 91% and the residual activity [23] was 100%. It also gave a residual activity [24] of 94%, a residual activity [25] of 92% and a residual activity [26] of 86%. For the same molecule, the residual activity [27] was 92%, the residual activity [28] was 90% and the residual activity [29] was 100%. It also gave a residual activity [30] of 100%, a residual activity [31] of 100% and a residual activity [32] of 75%. The inhibition [33] was -3.48%, the inhibition [34] was 39.8% and the inhibition [35] was 0.97%. It also gave an inhibition [36] of 3.53%, an inhibition (Rattus norvegicus) of 61.1% and an inhibition [37] of 53.3%.
